Experiment [1] addresses T1, hM5 (human Muscarinic receptor subtype 5) (Homo sapiens, UniProt P08912).
T1 construct: expressed in transfected cells; host or cells: CHO cells (ATCC)
T1 sequence (P08912 1-532): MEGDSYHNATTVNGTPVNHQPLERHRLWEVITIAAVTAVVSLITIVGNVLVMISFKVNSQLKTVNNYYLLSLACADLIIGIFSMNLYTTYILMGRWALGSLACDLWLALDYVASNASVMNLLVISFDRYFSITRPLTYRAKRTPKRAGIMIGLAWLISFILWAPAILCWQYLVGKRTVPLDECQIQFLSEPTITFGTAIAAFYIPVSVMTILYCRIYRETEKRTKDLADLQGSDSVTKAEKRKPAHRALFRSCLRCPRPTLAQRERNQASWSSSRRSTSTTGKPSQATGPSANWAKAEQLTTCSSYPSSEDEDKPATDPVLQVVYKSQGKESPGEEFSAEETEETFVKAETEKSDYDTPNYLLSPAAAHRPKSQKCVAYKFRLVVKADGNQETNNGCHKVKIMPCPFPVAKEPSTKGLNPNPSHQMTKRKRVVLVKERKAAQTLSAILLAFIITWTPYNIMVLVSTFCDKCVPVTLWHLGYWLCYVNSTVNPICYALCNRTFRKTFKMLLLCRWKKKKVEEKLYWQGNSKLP
Kind of experiment: Human M5 calcium mobilization FLIPR assay. Format: cell-based. The conditions noted are these: hM5 expressed in CHO cells, intracellular Ca2+ release (FLIPR). The procedure: (§1) Human M1, rat M1, Human M3 and Human M5 Calcium Mobilization FLIPR™ Assay The compound activity in the present invention (EC50 or IC50) is measured using a 384 plate-based imaging assay that monitors drug induced intracellular Ca^2+ release in whole cells. Activation of hM1 (human Muscarinic receptor subtype 1, gene bank access NM_000738), rM1 (rat Muscarinic receptor subtype 1, gene bank access NM_080773), hM3 (human Muscarinic receptor subtype 3, gene bank access NM_000740NM_000740) and hM5 (human Muscarinic receptor subtype 5, gene bank access NM_0121258), receptors expressed in CHO cells (Chinese hamster ovary cells, ATCC) is quantified in a Molecular Devices FLIPR IITM instrument as an increase in fluorescent signal. Inhibition of hM3 and hM5 by compounds is determined by the decrease in fluorescent signal in response to 2 nM acetylcholine activation. […] Prior to experiment, the cell culture medium is removed from the plates by inversion. […] Plates are incubated at 37° C. for 60 minutes prior to start the experiment. The incubation is terminated by washing the cells four times in assay buffer, leaving a residual 25 μl buffer per well. Cell plates are then transferred to the FLIPR, ready for compound additions. The day of experiment, acetylcholine and compounds are diluted in assay buffer in three-fold concentration range (10 points serial dilution) for addition by FLIPR instrument. For all calcium assays, a baseline reading is taken for 10 seconds followed by the addition of 12.5 μl of compounds, resulting in a total well volume of 37.5 μl. Data is collected every second for 60 pictures and then every 6 seconds for 20 pictures prior to the addition of agonist. For hM3 and hM5, before agonist addition, a second baseline reading is taken for 10 seconds followed by the addition of 12.5 μl of agonist or buffer, producing a final volume of 50 μl. After agonist stimulation, the FLIPR continues to collect data every second for 60 pictures and then every 6 seconds for 20 pictures. The fluorescence emission is read using filter 1 (emission 510-570 nm) by the FLIPR on board CCD camera. Calcium mobilization output data are calculated as the maximal relative fluorescence unit (RFU) minus the minimal value for both compound and agonist reading frame (except for hM1 and rM1 using only the maximal RFU). Data are analyzed using sigmoidal fits of a non-linear curve-fitting program (XLfit version 4.2.2 Excel add-in version 4.2.2 build 18 math 1Q version 2.1.2 build 18). All pEC50 and pIC50 values are reported as arithmetic means±standard error of mean of ‘n’ independent experiments.

Experiment [2] has as its target T2, hM3 (human Muscarinic receptor subtype 3) (Homo sapiens, UniProt P20309).
T2 construct: expressed in transfected cells; host or cells: CHO cells (ATCC)
Kind of experiment: Human M3 calcium mobilization FLIPR assay. Format: cell-based. Conditions: hM3 expressed in CHO cells, intracellular Ca2+ release (FLIPR). The procedure:
as §1

The target in experiment [3] is T3, hM1 (human Muscarinic receptor subtype 1) (Homo sapiens, UniProt P11229).
T3 construct: expressed in transfected cells; host or cells: CHO cells (ATCC)
T3 sequence (P11229 1-460): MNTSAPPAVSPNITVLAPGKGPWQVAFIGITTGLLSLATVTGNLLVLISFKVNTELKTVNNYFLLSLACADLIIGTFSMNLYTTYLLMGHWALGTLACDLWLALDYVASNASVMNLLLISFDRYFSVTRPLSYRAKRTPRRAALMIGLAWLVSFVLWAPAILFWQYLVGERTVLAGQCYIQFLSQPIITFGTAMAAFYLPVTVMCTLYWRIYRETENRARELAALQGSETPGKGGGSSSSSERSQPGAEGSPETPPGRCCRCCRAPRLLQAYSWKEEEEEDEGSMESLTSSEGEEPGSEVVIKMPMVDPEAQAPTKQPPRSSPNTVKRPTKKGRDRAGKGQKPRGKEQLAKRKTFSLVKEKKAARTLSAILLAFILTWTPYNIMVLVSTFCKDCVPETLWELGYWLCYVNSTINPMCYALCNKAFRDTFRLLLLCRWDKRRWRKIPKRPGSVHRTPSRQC
In words: Human M1 calcium mobilization FLIPR assay. Format: cell-based. Conditions: hM1 expressed in CHO cells, intracellular Ca2+ release (FLIPR). On the procedure: as §1

The target of the next experiment is T4, cloned human M2 receptor (Homo sapiens, UniProt P08172).
T4 construct: purchased Perkin-Elmer RBHM2M; host or cells: Chinese hamster ovary cells (CHO), membranes
T4 sequence (P08172 1-466): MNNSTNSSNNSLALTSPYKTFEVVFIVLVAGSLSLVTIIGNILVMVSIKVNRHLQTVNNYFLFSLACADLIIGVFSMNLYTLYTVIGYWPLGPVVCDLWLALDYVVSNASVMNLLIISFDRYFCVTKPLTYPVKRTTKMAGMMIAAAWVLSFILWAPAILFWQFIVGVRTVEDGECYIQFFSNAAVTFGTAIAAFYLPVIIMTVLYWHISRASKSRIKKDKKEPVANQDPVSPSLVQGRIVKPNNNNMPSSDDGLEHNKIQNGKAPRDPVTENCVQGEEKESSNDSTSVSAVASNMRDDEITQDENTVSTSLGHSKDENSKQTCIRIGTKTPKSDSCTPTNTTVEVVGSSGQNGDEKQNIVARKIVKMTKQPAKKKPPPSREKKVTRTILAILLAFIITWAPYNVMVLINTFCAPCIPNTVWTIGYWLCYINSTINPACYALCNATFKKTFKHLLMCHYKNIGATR
Kind of experiment: hM2 receptor GTPγS binding. The class given is biochemical. Conditions: CHO membranes expressing hM2, [35S]GTPγS binding. On the procedure:
hM2 Receptor GTPγS Binding Membranes produced from Chinese hamster ovary cells (CHO) expressing the cloned human M2 receptor (human Muscarinic receptor subtype 2, gene bank access NM_000739), are obtained from Perkin-Elmer (RBHM2M). The membranes are thawed at 37° C., passed 3 times through a 23-gauge blunt-end needle, diluted in the GTPγS binding buffer (50 mM Hepes, 20 mM NaOH, 100 mM NaCl, 1 mM EDTA, 5 mM MgCl2, pH 7.4, 100 μM DTT). The EC50, IC50 and Emax of the compounds of the invention are evaluated from 10-point dose-response curves (three fold concentration range) done in 60 μl in 384-well non-specific binding surface plate (Corning). Ten microliters from the dose-response curves plate (5× concentration) are transferred to another 384 well plate containing 25 μl of the following: 5 μg of hM2 membranes, 500 μg of Flashblue beads (Perkin-Elmer) and GDP 25 μM. An additional 15 μl containing 3.3× (60,000 dpm) of GTPγ^35S (0.4 nM final) are added to the wells resulting in a total well volume of 50 μl. Basal and maximal stimulated [^35S]GTPγS binding are determined in absence and presence of 30 μM final of acetylcholine agonist. The membranes/beads mix are pre-incubated for 15 minutes at room temperature with 25 μM GDP prior to distribution in plates (12.5 μM final). The reversal of acetylcholine-induced stimulation (2 μM final) of [^35S]GTPγS binding is used to assay the antagonist properties (IC50) of the compounds. The plates are incubated for 60 minutes at room temperature then centrifuged at 400 rpm for 5 minutes. The radioactivity (cpm) is counted in a Trilux (Perkin-Elmer). Values of EC50, IC50 and Emax are obtained using sigmoidal fits of a non-linear curve-fitting program (XLfit version 4.2.2 Excel add-in version 4.2.2 build 18 math 1Q version 2.1.2 build 18) of percent stimulated [^35S]GTPγS binding vs. log(molar ligand). All pEC50 and pIC50 values are reported as arithmetic means±standard error of mean of ‘n’ independent experiments.
In general terms: GTPγS is a poorly hydrolysed GTP analogue; its binding reports G protein activation.

Experiment [4] is described as follows: one or more of the biological assays described above (unspecified). Conditions: tested using one or more of the biological assays described above. The procedure: The compound activity in the present invention (EC50 or IC50) is measured using a 384 plate-based imaging assay that monitors drug induced intracellular Ca^2+ release in whole cells. Activation of hM1 (human Muscarinic receptor subtype 1, gene bank access NM_000738), rM1 (rat Muscarinic receptor subtype 1, gene bank access NM_080773), hM3 (human Muscarinic receptor subtype 3, gene bank access NM_000740NM_000740) and hM5 (human Muscarinic receptor subtype 5, gene bank access NM_0121258), receptors expressed in CHO cells (Chinese hamster ovary cells, ATCC) is quantified in a Molecular Devices FLIPR IITM instrument as an increase in fluorescent signal. Inhibition of hM3 and hM5 by compounds is determined by the decrease in fluorescent signal in response to 2 nM acetylcholine activation.
Membranes produced from Chinese hamster ovary cells (CHO) expressing the cloned human M2 receptor (human Muscarinic receptor subtype 2, gene bank access NM_000739), are obtained from Perkin-Elmer (RBHM2M). […] The EC50, IC50 and Emax of the compounds of the invention are evaluated from 10-point dose-response curves (three fold concentration range) done in 60 μl in 384-well non-specific binding surface plate (Corning). […] Basal and maximal stimulated [^35S]GTPγS binding are determined in absence and presence of 30 μM final of acetylcholine agonist. […] The radioactivity (cpm) is counted in a Trilux (Perkin-Elmer). […]

Molecules are shown by their SMILES.

T2 sequence (P20309 whole entry): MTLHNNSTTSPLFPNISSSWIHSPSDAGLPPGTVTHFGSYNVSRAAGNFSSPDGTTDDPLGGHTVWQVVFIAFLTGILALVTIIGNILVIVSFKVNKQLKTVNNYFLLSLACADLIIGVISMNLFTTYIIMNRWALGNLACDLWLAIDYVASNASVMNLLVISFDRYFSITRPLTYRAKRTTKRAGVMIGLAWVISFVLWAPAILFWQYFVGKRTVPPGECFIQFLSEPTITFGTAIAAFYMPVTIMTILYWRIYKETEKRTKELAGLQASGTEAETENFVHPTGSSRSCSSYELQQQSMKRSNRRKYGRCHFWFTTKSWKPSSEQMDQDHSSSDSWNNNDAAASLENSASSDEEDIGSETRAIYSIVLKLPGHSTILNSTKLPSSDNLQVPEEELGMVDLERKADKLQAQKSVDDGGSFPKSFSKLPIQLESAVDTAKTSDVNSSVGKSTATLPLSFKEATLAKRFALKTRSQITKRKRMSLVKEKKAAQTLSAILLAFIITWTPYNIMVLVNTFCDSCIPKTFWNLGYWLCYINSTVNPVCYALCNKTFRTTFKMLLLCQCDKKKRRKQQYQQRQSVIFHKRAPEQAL

For `CC(C)OCC1CCC(N2CCC(N3C(=O)NC[C@H]4CCCC[C@@H]43)CC2)CC1` (single isomer, unassigned) [Example 03], the EC50 (in general, the midpoint of the concentration-response curve) in experiment [1] was greater than 14.5 µM; in experiment [2], greater than 40 µM; in experiment [3] it was 0.058 µM; on cloned human M2 receptor, 1.7 µM.

For `O=C1CO[C@H]2CCCC[C@@H]2N1C1CCN(C2CCC(COCC3CCC3)CC2)CC1` (single isomer, unassigned) [Example 28], the EC50 was greater than 40 µM in experiment [1], greater than 40 µM in experiment [2], 0.051 µM in experiment [3] and greater than 90 µM at cloned human M2 receptor.

As for `O=C1CO[C@H]2CCCC[C@@H]2N1C1CCN(C2CCC(COCC3CCC3)CC2)CC1` (single isomer, unassigned) [Example 29], the EC50 in experiment [1] was greater than 40 µM; in experiment [2], greater than 40 µM; in experiment [3], 0.15 µM; on cloned human M2 receptor, greater than 90 µM.

With `CC(C)OC1CCC(N2CCC(N3C(=O)NC[C@H]4CCCC[C@@H]43)CC2)CC1` (single isomer, unassigned) [diastereomer 2], the efficacy entry in experiment [4] is recorded as “does not show efficacy”.

(Values after patent publication US20090275574A1, “NOVEL COMPOUNDS-300” (ASTRAZENECA AB, priority 2008, published 2009).)
